{
  "source": "paper PMC10424673",
  "about": "(Journal of Medicinal Chemistry, 2023)",
  "key": {"GLP-2R [1]": {"molecular_target": "T1, GLP-2R (Homo sapiens, UniProt O95838)", "T1 construct": "host or cells: CHO-K1 PathHunter reporter cells", "T1 sequence (P32121 whole entry partner, one chain of several)": "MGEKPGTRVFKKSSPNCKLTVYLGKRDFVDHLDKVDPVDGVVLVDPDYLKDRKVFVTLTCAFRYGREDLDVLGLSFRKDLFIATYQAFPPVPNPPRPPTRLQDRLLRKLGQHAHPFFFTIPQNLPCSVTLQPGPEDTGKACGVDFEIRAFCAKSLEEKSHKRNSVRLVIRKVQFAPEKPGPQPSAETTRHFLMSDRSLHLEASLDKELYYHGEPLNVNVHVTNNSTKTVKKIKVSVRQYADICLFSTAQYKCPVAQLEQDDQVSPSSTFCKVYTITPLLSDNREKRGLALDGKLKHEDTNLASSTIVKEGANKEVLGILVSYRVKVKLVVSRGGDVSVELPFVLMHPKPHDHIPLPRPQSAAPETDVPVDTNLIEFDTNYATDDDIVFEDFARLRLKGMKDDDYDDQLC", "design": "method as in PMID 36780786", "conditions": "cited from earlier work"}, "GLP-2R [2]": {"molecular_target": "T1, GLP-2R", "design": "method as in 2 sources, one per row (each row's own in cited_ref): ref 28 (Gadgaard et al.) ||| ref 28 = [28]; PMID 36780786; doi:10.1016/j.biopha.2023.114383; Gadgaard S.; Windeløv J. A.; Schiellerup S. P.; Holst J. J.; Hartmann B.; Rosenkilde M. M. Long-Acting Agonists of Human and Rodent Glp-2 Receptors for Studies of the Physiology and Pharmacologic", "conditions": "cited from earlier work"}, "DPP-IV": {"molecular_target": "DPP-IV (Homo sapiens, UniProt P27487)", "sequence (P27487 whole entry, species assumed)": "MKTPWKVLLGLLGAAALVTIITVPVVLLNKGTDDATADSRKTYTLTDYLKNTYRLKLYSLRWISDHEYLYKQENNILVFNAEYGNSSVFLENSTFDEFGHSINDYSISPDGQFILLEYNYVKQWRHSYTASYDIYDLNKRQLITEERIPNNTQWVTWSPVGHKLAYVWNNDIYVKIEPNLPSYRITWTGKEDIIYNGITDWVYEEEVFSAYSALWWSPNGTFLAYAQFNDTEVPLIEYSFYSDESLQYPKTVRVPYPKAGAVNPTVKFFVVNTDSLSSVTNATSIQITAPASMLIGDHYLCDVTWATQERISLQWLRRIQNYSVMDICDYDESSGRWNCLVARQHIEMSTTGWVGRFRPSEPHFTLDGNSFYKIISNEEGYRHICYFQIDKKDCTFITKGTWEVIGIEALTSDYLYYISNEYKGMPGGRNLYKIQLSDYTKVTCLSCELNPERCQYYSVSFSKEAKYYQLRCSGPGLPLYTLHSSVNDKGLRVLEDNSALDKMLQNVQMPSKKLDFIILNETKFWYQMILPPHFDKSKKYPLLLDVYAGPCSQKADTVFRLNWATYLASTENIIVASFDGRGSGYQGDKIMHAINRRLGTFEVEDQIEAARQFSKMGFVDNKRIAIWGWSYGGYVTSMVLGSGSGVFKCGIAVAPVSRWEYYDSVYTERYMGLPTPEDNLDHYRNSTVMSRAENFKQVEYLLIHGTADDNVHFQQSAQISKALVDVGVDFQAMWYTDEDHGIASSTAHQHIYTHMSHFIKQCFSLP", "conditions": "20 μM peptide, DPP-IV 50 μg/mL, 100 mM Tris pH 8.0, 2.5 h, SDS-PAGE densitometry and mass spectrometry"}, "proteinase K": {"molecular_target": "proteinase K (Parengyodontium album, UniProt P06873)", "sequence (P06873 106-384)": "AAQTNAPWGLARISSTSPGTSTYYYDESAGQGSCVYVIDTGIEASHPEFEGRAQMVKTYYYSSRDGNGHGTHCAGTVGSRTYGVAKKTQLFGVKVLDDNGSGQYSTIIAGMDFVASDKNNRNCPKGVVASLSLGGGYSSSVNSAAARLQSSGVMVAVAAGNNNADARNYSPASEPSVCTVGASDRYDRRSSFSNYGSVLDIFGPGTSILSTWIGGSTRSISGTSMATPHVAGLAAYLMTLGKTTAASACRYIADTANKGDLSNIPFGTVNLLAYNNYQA", "conditions": "20 μM peptide, ProtK 100 μg/mL, 10 mM Tris-base, 10 mM NaCl, pH 7.4, 5 μM CaCl2, 37 °C, SDS-PAGE Coomassie densitometry normalised to T0, repeated three times"}, "hGLP-2R": {"molecular_target": "T2, hGLP-2R (Homo sapiens, UniProt O95838)", "T2 construct": "expressed in transfected cells", "T2 sequence (O95838 1-553)": "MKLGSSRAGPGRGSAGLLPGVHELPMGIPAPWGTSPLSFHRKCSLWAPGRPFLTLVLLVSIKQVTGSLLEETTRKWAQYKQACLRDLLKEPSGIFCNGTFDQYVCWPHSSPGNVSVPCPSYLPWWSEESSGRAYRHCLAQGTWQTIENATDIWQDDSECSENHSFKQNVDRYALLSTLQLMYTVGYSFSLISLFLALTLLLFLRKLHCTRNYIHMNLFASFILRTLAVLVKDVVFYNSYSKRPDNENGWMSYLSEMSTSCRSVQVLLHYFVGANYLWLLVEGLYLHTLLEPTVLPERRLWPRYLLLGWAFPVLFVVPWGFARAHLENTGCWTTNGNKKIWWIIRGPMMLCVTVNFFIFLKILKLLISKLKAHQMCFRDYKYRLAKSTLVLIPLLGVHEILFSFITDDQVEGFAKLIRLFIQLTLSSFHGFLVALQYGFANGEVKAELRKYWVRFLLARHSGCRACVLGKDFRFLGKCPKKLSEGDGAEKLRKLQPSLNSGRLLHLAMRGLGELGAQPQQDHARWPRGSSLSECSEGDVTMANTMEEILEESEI", "test": "HTRF cAMP assay in GLP-2R-expressing HEK293 cells", "type": "cell-based"}, "[3]": {"tested_on": "GFP under CREB in HEK293 cells stably expressing hGLP-2R", "test": "Western blot of GFP expression under control of CREB in HEK293 cells stably expressing hGLP-2R", "type": "cell-based, human", "conditions": "10 μM peptide, after 36 hours of incubation, mean ± sd, n = 3", "source_text": "We then investigated the downstream effects of stimulating GLP-2R with the D-GLP-2 analogues to study the D-peptide designs’ effects on GLP-2R. We wanted to determine whether activating GLP-2R with D-GLP-2 analogues would promote GFP expression in HEK293 cells containing a GFP gene under the control of cAMP response element binding protein (CREB) and AKT phosphorylation. We also checked the beta-actin expression in all the treatments as loading controls. Of relevance, all peptides induced a similar GFP expression under the CREB, reaching saturation between 24 and 48 h of incubation (Figures 5E,F, S1A, Table S3). We also found a concentration-dependent increase in GFP expression in response to all the peptides’ stimulation (Figure S1B).\nThe cells were lysed with a lysis buffer 50 mM Tris-HCl pH 7.4, 1% Nonidet P-40, 150 mM NaCl, 1 mM ethylenediaminetetraacetic acid, 10 mM Na3VO4, 10 mM sodium pyrophosphate, and 25 mM NaF, 1× protease inhibitor mixture (Sigma) for 30 min at 4 °C. […] The transferred samples were immunoblotted with primary antibodies, followed by incubation with horseradish peroxidase-conjugated secondary antibodies (Santa Cruz Biotechnology) and detected using enhanced chemiluminescence (GE Healthcare)."}},
  "note": "Where a SMILES comes first, the peptide text is derived from it. [ ]: non-standard residue; d: D form. The star is where a group is joined. NHNH2 = NN*",
  "data": [
    {"compound": "GLP-2_3–33: the product of DPP-IV inactivation of GLP-2_1–33 (DGSFSDEMNTILDNLAARDFINWLIQTKITD; Glucagon-like peptide 2; UniProt P01275 148-178, looked up, fragment)", "values": [
      {"measurement": "β-arrestin 1 and 2 recruitment", "setting": "GLP-2R [1]", "value": "could not recruit β-arrestin 1 and 2"},
      {"measurement": "mode of action at GLP-2R", "setting": "GLP-2R [2]", "value": "competitive antagonist of GLP-2_1–33"},
      {"measurement": "efficacy at GLP-2R", "setting": "GLP-2R [2]; ref 28 (Gadgaard et al.)", "value": 11, "unit": "%"}
    ]},
    {"compound": "CC[C@H](C)[C@H](NC(=O)[C@H](Cc1ccccc1)NC(=O)[C@H](CC(=O)O)NC(=O)[C@H](CCCNC(=N)N)NC(=O)[C@H](C)NC(=O)[C@H](C)NC(=O)[C@H](CC(C)C)NC(=O)[C@H](CC(N)=O)NC(=O)[C@H](CC(=O)O)NC(=O)[C@H](CC(C)C)NC(=O)[C@@H](NC(=O)[C@@H](NC(=O)[C@H](CC(N)=O)NC(=O)[C@H](CCSC)NC(=O)[C@H](CCC(=O)O)NC(=O)[C@H](CC(=O)O)NC(=O)[C@H](CO)NC(=O)[C@H](Cc1ccccc1)NC(=O)[C@H](CO)NC(=O)CNC(=O)[C@H](CC(=O)O)NC(=O)CNC(=O)[C@@H](N)Cc1c[nH]cn1)[C@@H](C)O)[C@@H](C)CC)C(=O)N[C@@H](CC(N)=O)C(=O)N[C@@H](Cc1c[nH]c2ccccc12)C(=O)N[C@@H](CC(C)C)C(=O)N[C@H](C(=O)N[C@@H](CCC(N)=O)C(=O)N[C@H](C(=O)N[C@@H](CCCCN)C(=O)N[C@H](C(=O)N[C@H](C(=O)N[C@@H](CC(=O)O)C(=O)O)[C@@H](C)O)[C@@H](C)CC)[C@@H](C)O)[C@@H](C)CC", "note": "[L-GLP-2-2G]", "values": [
      {"measurement": "peptide remaining after incubation with DPP-IV", "setting": "DPP-IV", "value": "remained intact"},
      {"measurement": "peptide remaining after proteinase K exposure, 2 h", "setting": "proteinase K", "value": "almost complete loss"}
    ]},
    {"compound": "CC[C@@H](C)[C@@H](NC(C)=O)C(=O)N[C@H](CCCCN)C(=O)N[C@H](C)C(=O)N[C@H](CCC(N)=O)C(=O)N[C@H](Cc1c[nH]c2ccccc12)C(=O)N[C@H](CC(C)C)C(=O)N[C@H](C)C(=O)N[C@H](C)C(=O)N[C@H](CCC(=O)O)C(=O)N[C@H](Cc1ccccc1)C(=O)N[C@@H](C(=O)N[C@H](CCC(N)=O)C(=O)N[C@H](C)C(=O)N[C@@H](C(=O)N[C@H](C)C(=O)N[C@H](C)C(=O)N[C@@H](C(=O)N[C@H](CC(C)C)C(=O)N[C@H](C)C(=O)N[C@H](CCSC)C(=O)N[C@H](CC(C)C)C(=O)N[C@H](CCCNC(=N)N)C(=O)N[C@H](CC(N)=O)C(=O)N[C@H](CC(N)=O)C(=O)N[C@H](CCC(N)=O)C(=O)N[C@H](Cc1ccccc1)C(=O)N[C@H](CCC(=O)O)C(=O)N[C@H](Cc1ccccc1)C(=O)N[C@H](C)C(=O)NCC(=O)N[C@@H](C(=O)N[C@H](CCC(=O)O)C(=O)N[C@H](Cc1c[nH]cn1)C(N)=O)C(C)C)C(C)C)C(C)C)[C@H](C)CC", "note": "[D-GLP-2] (Ac-[dI][dK][dA][dQ][dW][dL][dA][dA][dE][dF][dI][dQ][dA][dV][dA][dA][dV][dL][dA][dM][dL][dR][dN][dN][dQ][dF][dE][dF][dA]G[dV][dE][dH]-NH2)", "values": [
      {"measurement": "EC50", "setting": "hGLP-2R", "value": 1420, "unit": "nM"},
      {"measurement": "times less potent (weaker EC50) than native L-GLP-2", "setting": "hGLP-2R; ratio of cAMP EC50 to that of GLP-2", "value": 35, "unit": "times"}
    ]},
    {"compound": "CC[C@@H](C)[C@@H](NC(C)=O)C(=O)N[C@H](CCCCN)C(=O)N[C@H](C)C(=O)N[C@H](CCC(N)=O)C(=O)N[C@H](Cc1c[nH]c2ccccc12)C(=O)N[C@H](CC(C)C)C(=O)N[C@H](C)C(=O)N[C@H](C)C(=O)N[C@H](CCC(=O)O)C(=O)N[C@H](Cc1ccccc1)C(=O)N[C@@H](C(=O)N[C@H](CCC(N)=O)C(=O)N[C@H](C)C(=O)N[C@@H](C(=O)N[C@H](C)C(=O)N[C@H](C)C(=O)N[C@@H](C(=O)N[C@H](CC(C)C)C(=O)N[C@H](C)C(=O)N[C@H](CCSC)C(=O)N[C@H](CC(C)C)C(=O)N[C@H](CCCNC(=N)N)C(=O)N[C@H](CC(N)=O)C(=O)N[C@H](CC(N)=O)C(=O)N[C@H](CCC(N)=O)C(=O)N[C@H](Cc1ccccc1)C(=O)N[C@H](CCC(=O)O)C(=O)N[C@H](Cc1ccccc1)C(=O)N[C@H](C)C(=O)NCC(=O)N[C@@H](C(=O)N[C@H](C)C(=O)N[C@H](Cc1c[nH]cn1)C(=O)NN)C(C)C)C(C)C)C(C)C)[C@H](C)CC", "note": "[D-GLP-2 E33A hydrazide] (Ac-[dI][dK][dA][dQ][dW][dL][dA][dA][dE][dF][dI][dQ][dA][dV][dA][dA][dV][dL][dA][dM][dL][dR][dN][dN][dQ][dF][dE][dF][dA]G[dV][dA][dH]-NHNH2)", "values": [
      {"measurement": "GFP relative expression level, relative to L-GLP-2-treated cells", "setting": "[3]", "value": "1.08 ± 0.14"},
      {"measurement": "EC50", "setting": "hGLP-2R", "value": 226, "unit": "nM"},
      {"measurement": "improvement of GLP-2R activation compared to D-GLP-2", "setting": "hGLP-2R; ratio of cAMP EC50 values, compared to D-GLP-2", "value": 6.26, "unit": "fold"}
    ]}
  ]
}
